From patent US20050014751A1, “Use of n-acyl homoserine lactones for the treatment of insulitis” (priority 2001, published 2005)

Experiments:
[1] = system: human PBMC; assay: ConA mitogen-stimulated proliferation of human PBMC; type: cell-based; conditions: ConA 1 μg/ml, 100,000 PBMC
Description: Blood specimens were obtained with consent from healthy human volunteers. Human peripheral blood mononuclear cells (PBMC) were isolated from heparinised whole blood by buoyant density centrifugation over Histopaque 1077 (Sigma, Poole, UK) at 600 g for 20 minutes. PBMC harvested from the ‘buffy’ layers were washed twice with RPMI 1640 medium and resuspended in CTCM. HSL compounds were tested at similar dilutions as for murine splenocytes in 200 μl of CTCM, containing 1 μg/ml of ConA and 100,000 PBMC. Human PBMC were incubated for 48 h at 37° C. in 5% CO2-air, followed by pulsing with 0.25 μCi [^3H]-thymidine (see above). After a further incubation of 24 h cells were harvested onto fibreglass filters and then counted in the presence of MicroScint-O with the Packard TopCount.
Concanavalin induced cell proliferation of human peripheral blood mononuclear cells (PBMC) was tracked, as described in I above, by a measurement of counts per minute using the scintillation counter. The inhibitory effect of an HSL compound being tested on cell proliferation was indicated by a reduction in counts per minute. […]
(§1) In the cell culture assays the number of cells used (mouse splenocytes and human PBMC) was initially optimised to 100,000 cells per well. The optimal dose of ConA of 1 μg/ml used in the cell proliferation assays was determined from ConA titration curves. […]

[2] = system: NOD mice; assay: Comparative immune toxicity assessment in NOD mice; type: in vivo
Description: The overt immune toxicity of OdDHL was investigated using the dose regime described above in Example 5 for the alleviation of insulitis or diabetes in NOD mice. […] Splenocytes from the mice were taken along the time course of treatment (3 times a week for 4 weeks) and were stained with anti-CD-3 (pan T-cell), anti-CD4 (helper T-cell), anti-CD8 (cytotoxic T-cell) and anti-CD19 (B cell) antibodies for 30 minutes on ice. Cells were washed twice in PBS/BSA and then fixed in 0.5% formaldehyde. Cell phenotypes were analysed on BD FACScan.

[3] = system: TNF-alpha production; assay: TNF-alpha production from LPS-stimulated human PBMC; type: cell-based; conditions: LPS 5×10^−5 μg/ml, 100,000 PBMC, 24 h, ELISA
Description: Bacterial lipopolysaccharide (LPS) stimulates the production of a variety of cytokines, including TNF-alpha, from human PBMC; these cytokines in turn influence the development of T cells, supporting a T helper 1 conducive milieu. Human PBMC prepared from whole blood by buoyant density centrifugation were resuspended in CTCM. HSL compounds were again tested at similar dilutions as for murine splenocytes in 200 μl of CTCM, containing 5×10^−5 μg/ml LPS Escherichia coli strain 055:B5 (Sigma, Poole, UK) and 100,000 PBMC. Following incubation for 24 h at 37° C. in 5% CO2-air, the cell culture supernatants were collected and tested for TNF-alpha levels by ‘sandwich’ ELISA. Briefly, 96-well Nunc MaxiSorp (Life Technologies, Paisley, UK) plates were coated with 50 μl of a 2 μg/ml solution of mouse anti-human TNF-alpha monoclonal antibody (Pharmingen, UK) in 0.05 M carbonate/bicarbonate buffer, pH 9.6 overnight at 4° C. After washing the plates three times with PBS-Tween, which contained phosphate buffered saline (PBS) with 0.5% (vol/vol) Tween 20 (Sigma, Poole, UK), the plates were blocked with 1% (wt/vol) bovine serum albumin (BSA) (Sigma, Poole, UK) at room temperature for 2 h. […] Following four washes, the bound biotinylated antibody was detected with 50 μl of a 1:1,000 dilution of Streptavidin-peroxidase (Pharmingen, UK). […] The enzyme reaction was stopped with 50 μl of 2.5 M H2SO4 after an incubation of 10 minutes at room temperature and the development was read at 450 nm with a spectrophotometric 96-well plate reader (Dynex). […]
Similar studies were carried out using, as the HSL compounds, N-(12-bromo-3-oxododecanoyl)-L-homoserine lactone (12BrOdDHL) and N-(12-hydroxy-3-oxododecanoyl)-L-homoserine lactone (12hydroxyOdDHL) and the plots for these are shown in FIG. 9. […] The IC50 value for dexamethasone was determined to be 500.
as §1

[4] = Comparative assay performed in vivo (OdDHL vs CSA and dexamethasone); conditions: compared with CSA and dexamethasone
Source text: From this it is believed that a similar result will be achieved for insulitis.

SMILES: CCCCCCCCCC(=O)CC(=O)N[C@H]1CCOC1=O [OdDHL, N-(3-oxododecanoyl)-L-homoserine Lactone]
- inhibition of proliferation of human PBMC ([3H]-thymidine cpm, FIG. 7) [1]: inhibited proliferation
- overt immune toxicity (CD3, CD4, CD8, CD19 splenocyte populations, FACScan, FIG. 12) ([2]; 3 times a week for 4 weeks): lack of overt immune toxicology
- body weight gain of treated mice ([2]; dose regime of Example 5, vs non-treated littermates): gained weight identically to their non-treated littermates
- inhibition of TNF-α secretion (FIG. 8) [3]: inhibited the secretion
- comparative performance in vivo [4]: performed better than CSA and dexamethasone
